Blank lines part the entries; values can stand above or below the compound they belong to. Calls of active or inactive are those of the source.
Columns and labels:
[1] = biological target: DNA dC->dU-editing enzyme APOBEC-3G (Homo sapiens, UniProt Q9HC16); test: Dose Response confirmation of small molecule APOBEC3G DNA Deaminase Inhibitors via a fluorescence-based single-stranded DNA deaminase assay. [Related pubchem assays (depositor defined):AID493012, AID493028]; assay type: functional
[2] = biological target: DNA dC->dU-editing enzyme APOBEC-3A (Homo sapiens, UniProt P31941); test: APOBEC3A DNA deaminase inhibitors, dose response, biochemical (AID 504722); assay type: functional
[3] = biological target: Peroxisome proliferator-activated receptor gamma/Nuclear receptor coactivator 3 (Homo sapiens, UniProt P37231); assay type: functional;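 note: agonist potency for raising coactivator recruitment to the receptor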
[4] = biological target: Peroxisome proliferator-activated receptor gamma/Nuclear receptor coactivator 1 (Homo sapiens, UniProt P37231); assay type: functional;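 note: agonist potency as compounds enhance coactivator SRC-1 recruitment to PPARgamma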
[5] = biological target: Peroxisome proliferator-activated receptor gamma/Nuclear receptor coactivator 2 (Homo sapiens, UniProt P37231); assay type: functional;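 note: agonist potency for raising coactivator recruitment to the receptor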
[6] = biological target: 5-hydroxytryptamine receptor 5A (Homo sapiens, UniProt P47898); test: Counterscreen for agonists of OPRM1-OPRD1 heterodimerization: luminescence-based cell-based high throughput dose response assay to identify agonists of 5-hydroxytryptamine (serotonin) 5A receptor (HTR5A). [Related pubchem assays (depositor defined):AID504326, AID504355, AID504692, AID504904, AID504905]; assay type: functional
[7] = biological target: Delta-type opioid receptor (Homo sapiens, UniProt P41143); test: Counterscreen for agonists of heterodimerization of the mu 1 (OPRM1) and delta 1 (OPRD1) opioid receptors: Luminescence-based cell-based high throughput dose response assay to identify agonists of OPRD1 homodimerization. [Related pubchem assays (depositor defined):AID504326, AID504355, AID504692, AID504904, AID504905]; assay type: functional
Mu-type opioid receptor = Mu-type opioid receptor (Homo sapiens, UniProt P35372); test: Counterscreen for agonists of heterodimerization of the mu 1 (OPRM1) and delta 1 (OPRD1) opioid receptors: Luminescence-based cell-based high throughput dose response assay to identify agonists of OPRM1 homodimerization.; assay type: functional;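 note: U2OS cells expressing OPRM1 and beta-arrestin as split beta-galactosidase partners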
Cytochrome P450 3A4 = Cytochrome P450 3A4 (Homo sapiens, UniProt P08684);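 note: CYP3A4 tested as one member of a cytochrome P450 panel screen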
SUMO-activating enzyme = SUMO-activating enzyme (Homo sapiens, UniProt Q9UBT2); test: SUMOylation inhibitor hit validation, confirmation, SUMOylation inhibitor project, biochemical, AlphaScreen (AID 2018); assay type: functional
Bcl-2-related protein A1 = biological target: T1, Bcl-2-related protein A1 (Mus musculus, UniProt Q07440); assay type: functional;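 note: confirmatory dose–response counterscreen on Bfl-1, used to check hits from a UBC13 polyubiquitin inhibitor campaign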
T1 sequence (Q07440 whole entry): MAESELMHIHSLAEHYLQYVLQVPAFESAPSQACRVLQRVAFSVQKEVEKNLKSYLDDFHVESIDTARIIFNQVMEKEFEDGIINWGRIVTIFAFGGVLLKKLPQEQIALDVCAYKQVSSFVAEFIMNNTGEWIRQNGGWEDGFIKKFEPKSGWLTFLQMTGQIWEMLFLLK

[8] = biological target: T2, Ubiquitin-conjugating enzyme E2 N (Homo sapiens, UniProt P61088); assay type: functional
T2 sequence (P61088 whole entry): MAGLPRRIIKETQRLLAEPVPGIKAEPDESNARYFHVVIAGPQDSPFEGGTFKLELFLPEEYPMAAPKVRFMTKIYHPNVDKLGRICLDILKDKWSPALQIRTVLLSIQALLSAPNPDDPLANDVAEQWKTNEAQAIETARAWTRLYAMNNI

[9] = biological target: T2, Ubiquitin-conjugating enzyme E2 N; assay type: functional; remark: listed apart in the source
Ion channel NompC = Ion channel NompC (Danio rerio, UniProt Q7T1G6); test: Fluorescence counterscreen assay for TRPML3 agonists: dose response cell-based high-throughput screening assay to identify agonists of the transient receptor potential channel N1 (TRPN1). [Related pubchem assays: 1526, 1424, 1448 ]; assay type: functional
Mucolipin-3 = biological target: T3, Mucolipin-3 (Homo sapiens, UniProt Q8TDD5); test: Dose response cell-based high-throughput screening assay for agonists of the transient receptor potential channel ML3 (TRPML3). [Related pubchem assays: 1526, 1424, 1448 ]; assay type: functional
T3 sequence (Q8TDD5 whole entry): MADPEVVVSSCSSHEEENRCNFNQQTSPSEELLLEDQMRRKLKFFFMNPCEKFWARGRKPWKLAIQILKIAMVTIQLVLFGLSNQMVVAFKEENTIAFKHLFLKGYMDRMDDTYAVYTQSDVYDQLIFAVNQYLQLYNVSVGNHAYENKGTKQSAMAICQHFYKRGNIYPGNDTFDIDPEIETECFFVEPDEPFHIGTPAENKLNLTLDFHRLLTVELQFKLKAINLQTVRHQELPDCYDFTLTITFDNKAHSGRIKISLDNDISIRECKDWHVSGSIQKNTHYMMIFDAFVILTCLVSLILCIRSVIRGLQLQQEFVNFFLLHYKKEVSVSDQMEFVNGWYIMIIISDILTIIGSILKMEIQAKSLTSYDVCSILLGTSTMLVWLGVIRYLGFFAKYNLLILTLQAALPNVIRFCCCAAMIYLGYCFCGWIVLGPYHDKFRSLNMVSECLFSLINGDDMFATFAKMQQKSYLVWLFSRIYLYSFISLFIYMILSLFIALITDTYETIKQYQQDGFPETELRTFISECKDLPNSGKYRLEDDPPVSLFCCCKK

Cytochrome P450 2C9 = Cytochrome P450 2C9 (Homo sapiens, UniProt P11712)

Sequence of Delta-type opioid receptor (P41143 whole entry): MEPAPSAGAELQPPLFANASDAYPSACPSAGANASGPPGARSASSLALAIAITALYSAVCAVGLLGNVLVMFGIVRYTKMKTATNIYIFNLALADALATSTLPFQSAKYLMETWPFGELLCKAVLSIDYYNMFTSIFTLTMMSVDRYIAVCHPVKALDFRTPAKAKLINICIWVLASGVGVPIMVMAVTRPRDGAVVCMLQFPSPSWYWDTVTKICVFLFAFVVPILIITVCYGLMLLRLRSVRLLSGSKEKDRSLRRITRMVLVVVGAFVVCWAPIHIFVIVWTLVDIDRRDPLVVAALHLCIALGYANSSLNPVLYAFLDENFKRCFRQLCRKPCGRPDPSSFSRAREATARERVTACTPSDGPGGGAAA
Sequence of DNA dC->dU-editing enzyme APOBEC-3G (Q9HC16 whole entry): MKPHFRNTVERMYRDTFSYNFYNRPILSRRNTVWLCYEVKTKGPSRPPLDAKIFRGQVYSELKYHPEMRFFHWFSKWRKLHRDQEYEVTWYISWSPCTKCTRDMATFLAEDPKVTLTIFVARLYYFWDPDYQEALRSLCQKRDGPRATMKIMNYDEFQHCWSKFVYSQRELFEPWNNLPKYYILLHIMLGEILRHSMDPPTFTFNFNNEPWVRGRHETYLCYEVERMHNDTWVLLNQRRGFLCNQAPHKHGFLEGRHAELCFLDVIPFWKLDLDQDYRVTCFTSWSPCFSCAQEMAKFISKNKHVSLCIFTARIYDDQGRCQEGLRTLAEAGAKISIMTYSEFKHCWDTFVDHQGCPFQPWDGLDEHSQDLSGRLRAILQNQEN
Sequence of DNA dC->dU-editing enzyme APOBEC-3A (P31941 whole entry): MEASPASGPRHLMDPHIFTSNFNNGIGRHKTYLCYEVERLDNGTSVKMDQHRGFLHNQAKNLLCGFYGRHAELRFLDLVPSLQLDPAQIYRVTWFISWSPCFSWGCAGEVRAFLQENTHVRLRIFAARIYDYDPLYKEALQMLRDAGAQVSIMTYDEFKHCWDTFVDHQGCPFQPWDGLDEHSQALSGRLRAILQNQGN
Sequence of Mu-type opioid receptor (P35372 whole entry): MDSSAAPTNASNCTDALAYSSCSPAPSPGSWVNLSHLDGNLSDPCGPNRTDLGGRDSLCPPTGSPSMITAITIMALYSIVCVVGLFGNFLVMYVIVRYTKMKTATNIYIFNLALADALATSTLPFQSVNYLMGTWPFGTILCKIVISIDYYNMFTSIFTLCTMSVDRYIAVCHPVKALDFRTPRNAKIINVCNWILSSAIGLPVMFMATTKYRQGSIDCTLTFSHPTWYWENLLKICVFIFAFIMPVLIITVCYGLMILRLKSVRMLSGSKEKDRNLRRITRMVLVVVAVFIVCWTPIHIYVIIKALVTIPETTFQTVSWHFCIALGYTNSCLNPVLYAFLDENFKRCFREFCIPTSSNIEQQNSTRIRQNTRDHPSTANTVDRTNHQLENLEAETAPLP
Sequence of 5-hydroxytryptamine receptor 5A (P47898 whole entry): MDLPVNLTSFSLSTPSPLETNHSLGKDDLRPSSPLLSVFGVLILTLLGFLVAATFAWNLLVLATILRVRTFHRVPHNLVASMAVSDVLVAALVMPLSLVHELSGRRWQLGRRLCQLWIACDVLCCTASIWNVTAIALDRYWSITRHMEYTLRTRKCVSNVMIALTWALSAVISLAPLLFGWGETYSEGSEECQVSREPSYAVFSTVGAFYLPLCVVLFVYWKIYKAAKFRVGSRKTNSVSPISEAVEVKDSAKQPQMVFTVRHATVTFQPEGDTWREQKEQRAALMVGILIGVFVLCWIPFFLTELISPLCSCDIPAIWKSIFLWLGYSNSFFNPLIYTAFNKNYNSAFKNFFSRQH
Sequence of Cytochrome P450 3A4 (P08684 whole entry): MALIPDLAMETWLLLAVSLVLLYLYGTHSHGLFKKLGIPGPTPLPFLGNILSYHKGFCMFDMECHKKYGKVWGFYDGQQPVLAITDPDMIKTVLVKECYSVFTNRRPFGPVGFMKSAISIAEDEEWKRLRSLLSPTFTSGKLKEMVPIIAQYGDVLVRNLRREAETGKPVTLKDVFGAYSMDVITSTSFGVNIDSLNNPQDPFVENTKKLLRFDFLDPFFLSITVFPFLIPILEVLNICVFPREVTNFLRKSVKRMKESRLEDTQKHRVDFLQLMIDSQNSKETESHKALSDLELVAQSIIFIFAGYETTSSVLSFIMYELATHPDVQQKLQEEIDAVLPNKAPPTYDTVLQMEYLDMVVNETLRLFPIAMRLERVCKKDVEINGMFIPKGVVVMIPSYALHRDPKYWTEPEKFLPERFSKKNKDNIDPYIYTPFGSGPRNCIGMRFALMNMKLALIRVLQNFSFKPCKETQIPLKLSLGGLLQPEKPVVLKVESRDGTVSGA
Sequence of SUMO-activating enzyme (Q9UBE0 whole entry): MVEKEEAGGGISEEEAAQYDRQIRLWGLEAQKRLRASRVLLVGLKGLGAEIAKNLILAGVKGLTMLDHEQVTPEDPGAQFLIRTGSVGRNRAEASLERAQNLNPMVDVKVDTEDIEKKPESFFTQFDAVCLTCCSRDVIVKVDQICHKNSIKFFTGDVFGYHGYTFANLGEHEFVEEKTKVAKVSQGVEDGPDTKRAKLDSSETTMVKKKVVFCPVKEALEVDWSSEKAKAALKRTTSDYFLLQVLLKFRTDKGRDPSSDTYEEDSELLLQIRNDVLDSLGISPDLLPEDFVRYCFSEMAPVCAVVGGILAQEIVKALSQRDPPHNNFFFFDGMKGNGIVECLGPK
Sequence of SUMO-activating enzyme (Q9UBT2 whole entry): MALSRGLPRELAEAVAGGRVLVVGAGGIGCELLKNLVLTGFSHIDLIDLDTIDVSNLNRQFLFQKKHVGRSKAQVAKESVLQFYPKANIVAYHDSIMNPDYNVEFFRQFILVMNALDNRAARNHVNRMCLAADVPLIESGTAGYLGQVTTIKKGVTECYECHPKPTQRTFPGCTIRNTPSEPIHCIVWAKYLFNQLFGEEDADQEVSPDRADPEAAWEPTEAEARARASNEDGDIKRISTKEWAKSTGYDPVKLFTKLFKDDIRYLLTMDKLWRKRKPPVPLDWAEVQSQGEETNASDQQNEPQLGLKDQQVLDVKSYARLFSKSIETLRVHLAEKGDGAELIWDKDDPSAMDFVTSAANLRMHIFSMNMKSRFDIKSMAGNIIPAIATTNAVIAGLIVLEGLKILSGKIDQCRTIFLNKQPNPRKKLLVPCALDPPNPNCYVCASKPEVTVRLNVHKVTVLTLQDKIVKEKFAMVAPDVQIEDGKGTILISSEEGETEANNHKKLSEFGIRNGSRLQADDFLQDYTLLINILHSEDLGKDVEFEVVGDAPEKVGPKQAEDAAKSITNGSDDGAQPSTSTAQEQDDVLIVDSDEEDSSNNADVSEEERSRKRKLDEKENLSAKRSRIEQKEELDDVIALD
Sequence of Ion channel NompC (Q7T1G6 whole entry): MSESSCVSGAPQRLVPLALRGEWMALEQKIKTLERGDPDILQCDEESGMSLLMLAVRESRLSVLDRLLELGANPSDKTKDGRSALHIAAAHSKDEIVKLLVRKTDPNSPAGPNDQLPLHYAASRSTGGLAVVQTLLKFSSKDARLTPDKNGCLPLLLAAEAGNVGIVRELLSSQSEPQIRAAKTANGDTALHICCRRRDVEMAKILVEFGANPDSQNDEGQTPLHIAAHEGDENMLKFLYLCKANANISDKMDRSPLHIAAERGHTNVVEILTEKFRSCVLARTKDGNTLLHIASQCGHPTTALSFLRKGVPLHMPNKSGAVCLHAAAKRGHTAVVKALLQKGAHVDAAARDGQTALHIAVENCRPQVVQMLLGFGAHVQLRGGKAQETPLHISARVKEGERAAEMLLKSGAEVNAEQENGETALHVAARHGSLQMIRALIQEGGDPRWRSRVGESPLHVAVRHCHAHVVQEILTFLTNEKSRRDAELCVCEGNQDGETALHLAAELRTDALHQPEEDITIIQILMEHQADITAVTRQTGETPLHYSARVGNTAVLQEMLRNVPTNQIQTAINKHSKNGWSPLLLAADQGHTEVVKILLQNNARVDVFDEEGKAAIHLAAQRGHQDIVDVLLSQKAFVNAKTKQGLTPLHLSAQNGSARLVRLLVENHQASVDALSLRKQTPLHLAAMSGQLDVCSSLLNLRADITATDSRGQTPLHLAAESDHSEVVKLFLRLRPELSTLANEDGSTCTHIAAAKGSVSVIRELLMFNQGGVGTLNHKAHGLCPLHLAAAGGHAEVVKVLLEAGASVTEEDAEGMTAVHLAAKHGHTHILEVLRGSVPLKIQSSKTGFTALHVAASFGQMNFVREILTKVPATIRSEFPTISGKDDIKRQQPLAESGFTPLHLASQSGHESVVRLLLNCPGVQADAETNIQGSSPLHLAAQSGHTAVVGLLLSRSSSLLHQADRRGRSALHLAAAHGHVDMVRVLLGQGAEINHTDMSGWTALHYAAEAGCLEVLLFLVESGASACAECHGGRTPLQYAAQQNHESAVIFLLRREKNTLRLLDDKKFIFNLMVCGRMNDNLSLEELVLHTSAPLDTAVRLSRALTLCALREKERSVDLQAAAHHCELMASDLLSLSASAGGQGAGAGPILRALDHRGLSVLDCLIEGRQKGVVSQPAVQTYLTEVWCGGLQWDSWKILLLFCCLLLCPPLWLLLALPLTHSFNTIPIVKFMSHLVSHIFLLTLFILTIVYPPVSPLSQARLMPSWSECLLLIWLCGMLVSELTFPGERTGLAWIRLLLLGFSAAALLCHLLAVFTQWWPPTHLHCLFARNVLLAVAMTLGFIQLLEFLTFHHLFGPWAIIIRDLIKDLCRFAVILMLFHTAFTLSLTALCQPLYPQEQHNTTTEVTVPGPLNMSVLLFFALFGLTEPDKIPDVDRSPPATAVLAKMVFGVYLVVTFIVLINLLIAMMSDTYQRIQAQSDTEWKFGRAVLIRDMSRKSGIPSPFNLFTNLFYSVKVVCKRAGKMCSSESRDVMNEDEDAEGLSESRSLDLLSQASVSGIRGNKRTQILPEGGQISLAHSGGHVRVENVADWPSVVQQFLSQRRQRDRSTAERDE

AC50 (Cytochrome P450 3A4): inconclusive
SMILES: N#Cc1cccc(NC(=O)N2CC3(CCN(C(=O)c4cccc(F)c4)CC3)C2)c1

EC50 (Ion channel NompC): > 29.9 µM (not active) | EC50 (Mucolipin-3): 10.1 µM (not active) | AC50 (Cytochrome P450 2C9): 11.2 µM (inconclusive)
SMILES: CN(C)S(=O)(=O)c1cc([N+](=O)[O-])ccc1N1CCCCCC1

EC50 [6]: > 92.5 µM (inactive) | EC50 [7]: > 92.5 µM (inactive) | EC50 (Mu-type opioid receptor): > 92.5 µM (inactive)
SMILES: Cc1cc(=O)oc2cc(NC(=O)C3COc4ccccc4O3)ccc12 (stereo not given)

AC50 (Cytochrome P450 3A4): inconclusive
SMILES: Cn1c(=O)[nH]c(=O)c2c1nc(CN1CCOCC1)n2Cc1ccccc1

EC50 [6]: > 92.5 µM (inactive) | EC50 [7]: 26.9 µM (inactive) | EC50 (Mu-type opioid receptor): 18.5 µM (inactive)
SMILES: COc1ccc(C(CNC(=O)c2cncc(Br)c2)N(C)C)cc1 (stereo not given)

IC50 (SUMO-activating enzyme): 45.5 µM (active)
SMILES: Cc1cc(C(=O)N/N=C/c2ccc(-c3ccc(C)c(Cl)c3)o2)[nH]n1

The next lines start with the compound.

SMILES: O=c1[nH]c(SCc2n[nH]c(=S)n2-c2ccccc2)nc2ccccc12
IC50 [1]: 3.8 µM (active) | IC50 [2]: > 100 µM (inactive)

SMILES: CC(C)n1c(SCC(=O)NCc2ccco2)nc2c1c(=O)n(C)c(=O)n2C
EC50 [3]: > 79.4 µM (not active) | EC50 [4]: > 79.4 µM (not active) | EC50 [5]: > 79.4 µM (not active)

SMILES: Cc1ccc(OCC(=O)Nc2ccc(NC(=O)c3cccs3)cc2)c(C)c1
EC50 [6]: > 92.5 µM (inactive) | EC50 [7]: > 92.5 µM (inactive) | EC50 (Mu-type opioid receptor): > 92.5 µM (inactive)

SMILES: Cc1cc(/C=C2\C(=O)NN(c3ccccc3)C2=O)c(C)n1-c1ccccc1O
IC50 (SUMO-activating enzyme): 40.7 µM (active)

SMILES: Cc1cc(C)c2[nH]c(O)c(N=NC(S)=NCC3CCCO3)c2c1 (stereo not given)
IC50 (Bcl-2-related protein A1): > 20 µM (inactive) | IC50 [8]: 10.2 µM (active) | IC50 [9]: 0.509 µM (active)

SMILES: COc1cc(-c2n[nH]c(=S)n2-c2ccc(C)cc2)cc(OC)c1OC
IC50 [1]: 3.38 µM (active) | IC50 [2]: > 100 µM (inactive)

SMILES: Sc1nnc(-c2ccncc2)n1/N=C/c1ccccc1Cl
IC50 [1]: 3.46 µM (active) | IC50 [2]: > 100 µM (inactive)

SMILES: COc1ccc(/C=N/n2c(S)nnc2-c2[nH]nc3c2CCC3)cc1
IC50 [1]: 3.61 µM (active) | IC50 [2]: > 100 µM (inactive)

— ChEMBL document CHEMBL1201862, “PubChem BioAssay data set” (2004)
